Laboratory results reported in patent publication US5912233A, “Methods and peptides for the treatment of non-IgE-mediated diseases” (Dura Pharmaceuticals, Inc., priority 1995, dated 1999).
Values joined by “and” are separate entries in the source; they are usually repeats but may differ in a detail not shown here. Identical values can stand only once. Residues, ends and D or L forms follow the SMILES beside them. No end group written: not given here.

Experiments:
[1] = system: immunoglobulin Fc receptors; conditions: U.S. Pat. No. 4,628,045; cited from earlier work
[2] = system: tetanus toxoid-induced DTH reactions; parameters: species or system Balb/C mice; conditions: mouse, in vivo
[3] = system: sheep erythrocyte (SRBC)-induced DTH reactions; experiment: Sheep erythrocyte (SRBC)-induced DTH, footpad volume; assay type: in vivo, Balb/C mice; conditions: indomethacin 1.0 mg/kg, day 4; positive control
[4] = system: carrageenan-induced inflammation; experiment: Carrageenan-induced footpad edema; assay type: in vivo, Balb/C mice; conditions: 10 mg/kg s.c. 24 hours prior to carrageenan
Procedure: In order to examine the ability of pentigetide to inhibit carrageenan-induced inflammation, female Balb/C mice were injected with 0.025 ml of 1.0% carrageenan solution (type lx carrageenan: Sigma No. C-1013, Lot No. 86F-0698) or saline in the right hind footpad 5 minutes after intravenous tail vein injection of 0.2 ml pentigetide (1.0 mg/kg) or saline solution. Indomethacin (10 mg/kg was used as a positive control and was administered by subcutaneous injection 24 hours prior to carrageenan injection. Footpad volumes were measured using a Buxco plethysmograph over a 6 hour period. Pentigetide produced substantial inhibition of carrageenan-induced inflammation when compared to saline control animals.

[5] = system: lymphoblastoid tissue culture cells; conditions: two trials; U.S. Pat. No. 4,161,522; cited from earlier work
[6] = system: immune complex-mediated ulcerative colitis; experiment: Immune complex-induced ulcerative colitis model (formalin + IgG immune complexes); assay type: in vivo, BKA mice; conditions: prednisolone 5.0 mg/kg i.p.
Procedure: A mouse model of intestinal inflammation was employed wherein the efficacy of pentigetide in reducing inflammation induced by formalin and complementfixing lgG immune complexes was measured. This model is particularly useful as a model of human ulcerative colitis and shares many clinical and histological functions of the human disease including sensitivity to glucocorticoids, sulfasalazine and 5-aminosalicylic acid (see L. P. Walsh, et al., British J. Pharm. 91:294 (1987); A. Blackham, et al., British J. Pharm. 89:694 (1986); L. D. Walsh and I. J. Zeitlin, British J. Pharm. 92:741 (1987)). The mouse model of intestinal inflammation used in these studies is induced by the exposure of the animals to chemicals which are known to trigger inflammatory processes in both animals and humans. […]
Colonic tissue water content was determined by tissue weight loss on drying of colonic tissues. […]
The response to immune complex alone was determined quantitatively by subtracting the mean value in group B from the mean value in group C. An estimate of the percentage reduction in this response produced by the drug was calculated as: [formula] […] Statistical significance was determined using the non-parametric Mann-Whitney U-test. […]

[7] = system: chronic idiopathic urticaria; conditions: human, in vivo

Compound: Asp-Ser-Glu-Pro-Arg (DSEPR; printed: Asp-Ser-Glu-Pro-Arg)
- blocking of immune complex binding to immunoglobulin Fc receptors [1]: capable of blocking immune complex binding

Compound: COc1ccc2c(c1)c(CC(=O)O)c(C)n2C(=O)c1ccc(Cl)cc1 [Indomethacin, indomethacin]
- inhibition (footpad swelling) [2]: 45%
- inhibition (footpad swelling) [3]: 43%
- Percent Inhibition ([4]; 1.0 hours after carrageenan injection): -35%
- Percent Inhibition ([4]; 2.0 hours after carrageenan injection): -60%
- Percent Inhibition ([4]; 4.0 hours after carrageenan injection): -39%
- Percent Inhibition ([4]; 6.0 hours after carrageenan injection): -47%

Compound: [-Cys-Ala-Asn-Ser-Asn-Pro-Arg]2 (CANSNPR; also: dimer)
- activity in blocking binding of IgE to lymphoblastoid tissue culture cells [5]: 9% and 12%

Compound: Asn-Ser-Asp-Pro-Arg (NSDPR; printed: Asn-Ser-Asp-Pro-Arg)
- activity in blocking binding of IgE to lymphoblastoid tissue culture cells [5]: lower activity

Compound: C[C@]12C=CC(=O)C=C1CC[C@@H]1[C@@H]2[C@@H](O)C[C@@]2(C)[C@H]1CC[C@]2(O)C(=O)CO [prednisolone]
- reduction of colonic edema ([6]; three days prior and daily thereafter, p<0.01): 86.2%
- reduction of colonic edema (in the colitic sign score paragraph) ([6]; p<0.001): 93.8%

Compound: N=C(N)NCCC[C@H](NC(=O)[C@@H]1CCCN1C(=O)[C@H](CC(=O)O)NC(=O)[C@H](CO)NC(=O)[C@@H](N)CC(=O)O)C(=O)O [pentigetide, Asp-Ser-Asp-Pro-Arg] (H-DSDPR-OH)
- side effects [7]: did not experience any side effects

Compound: Asn-Ser-Asn-Pro-Arg (NSNPR; printed: Asn-Ser-Asn-Pro-Arg)
- activity in blocking binding of IgE to lymphoblastoid tissue culture cells [5]: lower activity
